Our source for the inhibition, Kd and Activity values is ChEMBL document CHEMBL5537110, “SIRT1-dependent mitochondrial biogenesis supports therapeutic effects of 4-butyl-polyhydroxybenzophenone compounds against NAFLD” (Eur J Med Chem, 2023).

The source made the active and inactive calls. The calls are words filed in the database; no cut-off is given here.

The subject of one assay is Mitochondria. In words: Inhibition of mitochondrial dysfunction in 40% FBS-induced steatosis human HepG2 cells model assessed as decrease in lipid vesicle droplets at 5 uM incubated for 24 hrs by transmission electron microscopy. It is filed as functional.
Assay [1] concerns HepG2. In words: Inhibition of liver injury in 40% FBS-induced steatosis human HepG2 cells model assessed as increase in liver protection index by measuring increase in GSH level at 0.2 to 5 uM incubated in steatosis inducing DMEM with 40% FBS medium for 24 hrs followed by compound treatment. Conditions: dose 0.2-5 µM. The assay is classed as functional, cell-based.
Assay [2] deals with T1, NAD-dependent protein deacetylase sirtuin-1 (Homo sapiens, UniProt Q96EB6).
T1 sequence (Q96EB6 whole entry): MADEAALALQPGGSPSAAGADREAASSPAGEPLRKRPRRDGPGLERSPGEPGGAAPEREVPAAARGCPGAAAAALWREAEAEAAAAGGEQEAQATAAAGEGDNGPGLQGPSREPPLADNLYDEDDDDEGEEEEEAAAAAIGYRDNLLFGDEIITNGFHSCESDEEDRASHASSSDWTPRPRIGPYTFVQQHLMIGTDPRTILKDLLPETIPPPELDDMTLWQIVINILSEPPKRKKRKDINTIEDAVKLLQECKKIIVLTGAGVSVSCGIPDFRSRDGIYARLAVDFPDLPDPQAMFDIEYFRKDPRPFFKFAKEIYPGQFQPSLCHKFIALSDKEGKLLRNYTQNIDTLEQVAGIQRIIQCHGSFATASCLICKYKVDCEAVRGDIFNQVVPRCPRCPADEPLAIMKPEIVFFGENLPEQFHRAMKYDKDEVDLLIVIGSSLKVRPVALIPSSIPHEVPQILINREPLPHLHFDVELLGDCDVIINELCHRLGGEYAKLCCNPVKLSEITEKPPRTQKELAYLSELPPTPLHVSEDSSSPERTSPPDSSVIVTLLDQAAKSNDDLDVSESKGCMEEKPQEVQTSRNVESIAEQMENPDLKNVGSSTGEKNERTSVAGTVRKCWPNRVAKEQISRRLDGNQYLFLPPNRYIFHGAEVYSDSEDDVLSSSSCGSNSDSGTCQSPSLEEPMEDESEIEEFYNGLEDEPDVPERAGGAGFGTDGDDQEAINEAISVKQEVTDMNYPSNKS
In words: (§1) Binding affinity to SIRT1 (unknown origin) by surface plasmon resonance assay.

The target of assay [3] is T2, NAD-dependent protein deacetylase sirtuin-1 (Homo sapiens) (UniProt Q96EB6).
T2 sequence (whole entry): T1 sequence (Q96EB6 whole entry)
Described as §1. Conditions: filed as activator.

Assay [4] concerns HepG2. Description: Recovery of mitochondrial biogenesis in 40% FBS-induced steatosis human HepG2 cells model assessed as increase in TFAM mRNA expression incubated for 24 hrs by qRT-PCR analysis. The following applies: dose 0.2-5 µM. It is filed as functional, cell-based. A general note: In qPCR the cycle at which signal appears reflects the starting amount.
In assay [5] the test system is HepG2. Description: Inhibition of lipid toxicity in 40% FBS-induced steatosis human HepG2 cells model assessed as decrease in lipid accumulation at 0.2 to 5 uM incubated in steatosis inducing DMEM with 40% FBS medium for 24 hrs followed by compound treatment by Oil red O staining based analysis. The assay is classed as functional, cell-based. The following applies: dose 0.2-5 µM.

Assay [6] concerns Rattus norvegicus. Description: Hepatoprotective activity against high fat diet-fed NAFLD Sprague-Dawley rat model assessed as less ballooning degeneration and smaller fatty droplets in hepatocytes at 12.3 to 61.4 mg/kg, IG administered via gavage for 4 weeks by Hematoxylin-Eosin staining based analysis. The assay is classed as functional, organism-based. Conditions: dose 12.3-61.4 mg/kg.

For assay [7], the target named is T2, NAD-dependent protein deacetylase sirtuin-1 (Homo sapiens). In words: Binding affinity to SIRT1 in human HepG2 cells assessed as increase in protein abundance at 80 to 320 uM pretreated with compound for 30 mins followed by proteolysis for 15 mins by DARTS assay. It is filed as cell-based. The following applies: filed as activator, dose 80-320 µM, time 45.0 min.

In assay [8] the test system is Rattus norvegicus. In words: Hepatoprotective activity against high fat diet-fed NAFLD Sprague-Dawley rat model assessed as decrease in serum gamma-GT level administered intragastrically via gavage for 4 weeks. The assay is classed as functional, organism-based. Conditions: dose 12.3-61.4 mg/kg, route ig.
Assay [9] relates to HepG2. In words: Induction of mitochondrial biogenesis in human HepG2 cells assessed as mitochondrial COX1 mRNA expression incubated for 24 hrs in presence of SIRT1 inhibitor, EX527 by qRT-PCR analysis. It is filed as functional, cell-based.
Assay [10] concerns the target T3, Peroxisome proliferator-activated receptor gamma coactivator 1-alpha (Homo sapiens) (UniProt Q9UBK2).
T3 sequence (whole entry): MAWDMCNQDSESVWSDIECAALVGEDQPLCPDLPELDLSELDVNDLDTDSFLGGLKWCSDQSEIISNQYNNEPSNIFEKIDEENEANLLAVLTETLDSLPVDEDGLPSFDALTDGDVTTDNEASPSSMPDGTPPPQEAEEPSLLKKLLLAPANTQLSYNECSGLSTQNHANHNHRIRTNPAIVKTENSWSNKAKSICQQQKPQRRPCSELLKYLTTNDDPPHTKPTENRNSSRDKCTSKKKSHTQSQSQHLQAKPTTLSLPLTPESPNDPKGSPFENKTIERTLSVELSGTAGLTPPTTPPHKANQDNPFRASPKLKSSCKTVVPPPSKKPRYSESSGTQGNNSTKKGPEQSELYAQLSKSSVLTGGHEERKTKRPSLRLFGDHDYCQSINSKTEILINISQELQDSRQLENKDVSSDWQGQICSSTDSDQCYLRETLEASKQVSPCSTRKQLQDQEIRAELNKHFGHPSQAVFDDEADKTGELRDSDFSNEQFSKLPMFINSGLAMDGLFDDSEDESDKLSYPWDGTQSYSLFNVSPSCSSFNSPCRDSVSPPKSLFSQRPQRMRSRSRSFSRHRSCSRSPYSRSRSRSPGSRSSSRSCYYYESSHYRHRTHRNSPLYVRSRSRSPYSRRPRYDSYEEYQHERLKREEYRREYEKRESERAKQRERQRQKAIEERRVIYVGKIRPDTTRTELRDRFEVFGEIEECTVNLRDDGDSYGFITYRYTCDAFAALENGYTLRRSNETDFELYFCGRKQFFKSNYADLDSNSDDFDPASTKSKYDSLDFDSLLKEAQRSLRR
In words: Binding affinity to PGC1alpha in human HepG2 cells assessed as increase in thermal stabilization of protein at 320 uM pretreated with compound for 30 mins followed by incubation at 40 to 65 degC for 3 mins by CETSA-WB analysis. Conditions: filed as activator, time 33.0 min. The assay is classed as cell-based.

In a further assay the test system is EA.hy 926. In words: Cytoprotective activity against H2O2-induced toxicity in human EA.hy 926 cells assessed as protective rate at 10 uM pretreated with compound for 4 hrs followed by incubation with H2O2 for 2 hrs by absorbance based analysis. The assay is classed as functional. Conditions: time 6 hrs.
Assay [11] relates to HepG2. Description: Recovery of mitochondrial biogenesis in 40% FBS-induced steatosis human HepG2 cells model assessed as increase in TFAM protein expression incubated for 24 hrs by western blot analysis. The following applies: dose 0.2-5 µM. The assay is classed as functional, cell-based. (In general: A western blot detects proteins with antibodies after separation by electrophoresis.)

Assay [12] concerns HepG2. Description: Inhibition of oxidative stress in 40% FBS-induced steatosis human HepG2 cells model assessed as reduction in mitochondrial ROS production incubated with compound for 24 hrs followed by replacement with steatosis inducing DMEM with 40% FBS medium by MitoSOX Red dye based fluorescence microscopy. The assay is classed as functional, cell-based. Conditions: Mitochondria, dose 0.2-5 µM.

Assay [13] concerns Rattus norvegicus. In words: Hepatoprotective activity against high fat diet-fed NAFLD Sprague-Dawley rat model assessed as decrease in serum AKP level administered intragastrically via gavage for 4 weeks. It is filed as functional, organism-based. The following applies: dose 12.3-61.4 mg/kg, route ig.

`CC(C)(C)c1ccc(C(=O)c2ccc(O)c(O)c2)cc1`: the inhibition entry with Mitochondria, with HepG2 [1] and in the assay with HepG2 [5] was “Active” in each case. Besides, the dissociation constant (Kd) – broadly, a measure of binding affinity in units of concentration – in [2] was determined as 77.3 µM. Further, the Activity entry in assay [3] is “Dose-Dependent Effect”; in the assay with HepG2 [4] it was “Dose-Dependent Effect”; in the assay on EA.hy 926, 87.46%; with HepG2 [11] it was “Dose-Dependent Effect”. Besides, the result (in the assay with Rattus norvegicus [6]; in assay [7]; in the assay with Rattus norvegicus [8]; in [10]; in the assay on Rattus norvegicus [13]) was Active. The result with HepG2 [9] was inactive. Moreover, the inhibition result in the assay on HepG2 [12] is “Dose-Dependent Effect”.
